Results taken from patent US20220282217A1, “COMPOSITIONS AND METHODS FOR PREPARING T CELL COMPOSITIONS AND USES THEREOF” (priority 2019, published 2022).
Where a SMILES comes first, the peptide text is derived from it.

Molecular target: HLA-A03.01 (Homo sapiens, UniProt P04439)
Assay: Class I MHC peptide binding affinity (displacement of radiolabeled reference peptide)
Settings: allele A03.01; read-out: Observed Affinity (IC50; (nM))
Description: In brief, MHCI complexes were prepared and bound to radiolabeled reference peptides. Peptides were incubated at varying concentrations with these complexes for 2 days, and the amount of remaining radiolabeled peptide bound to WWI was measured using size exclusion gel-filtration.

HLA-A03.01, sequence (P04439 25-365): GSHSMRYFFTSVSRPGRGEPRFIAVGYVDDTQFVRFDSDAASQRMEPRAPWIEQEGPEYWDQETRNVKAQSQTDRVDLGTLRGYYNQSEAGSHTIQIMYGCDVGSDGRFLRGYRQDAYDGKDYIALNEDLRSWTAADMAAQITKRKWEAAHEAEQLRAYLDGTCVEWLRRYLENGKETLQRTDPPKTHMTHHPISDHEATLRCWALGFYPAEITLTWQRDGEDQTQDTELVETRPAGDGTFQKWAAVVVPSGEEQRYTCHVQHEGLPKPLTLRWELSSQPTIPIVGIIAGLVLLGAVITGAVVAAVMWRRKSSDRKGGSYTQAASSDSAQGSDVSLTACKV
HLA-A03.01, sequence (P61769 21-119 partner): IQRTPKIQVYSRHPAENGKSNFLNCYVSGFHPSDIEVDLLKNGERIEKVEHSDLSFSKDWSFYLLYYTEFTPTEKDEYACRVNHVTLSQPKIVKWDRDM

Structure (SMILES)	IC50
CC[C@H](C)[C@H](NC(=O)[C@H](C)NC(=O)[C@H](CS)NC(=O)[C@@H](NC(=O)[C@@H](N)Cc1ccc(O)cc1)[C@@H](C)O)C(=O)N[C@H](C(=O)N[C@H](C(=O)N[C@H](C(=O)N[C@@H](CCCCN)C(=O)O)C(C)C)[C@@H](C)O)[C@@H](C)O	122 nM
CC[C@H](C)[C@H](NC(=O)[C@H](C)N)C(=O)N[C@@H](CO)C(=O)N[C@H](C(=O)N[C@@H](CCCNC(=N)N)C(=O)N[C@@H](CC(=O)O)C(=O)N1CCC[C@H]1C(=O)N[C@@H](CC(C)C)C(=O)N[C@@H](CO)C(=O)N[C@@H](CCCCN)C(=O)O)[C@@H](C)O (H-AISTRDPLSK-OH; N-terminus and C-terminus assumed)	57.5 nM
CC(C)C[C@H](NC(=O)[C@H](Cc1ccccc1)NC(=O)[C@H](CO)NC(=O)[C@@H](N)CC(C)C)C(=O)N[C@@H](CO)C(=O)N[C@@H](CO)C(=O)N[C@@H](Cc1c[nH]c2ccccc12)C(=O)N[C@@H](CC(=O)O)C(=O)N[C@@H](Cc1ccc(O)cc1)C(=O)N[C@@H](CCCNC(=N)N)C(=O)O (H-LSFLSSWDYR-OH; N-terminus and C-terminus assumed)	101 nM
CC(C)C[C@H](NC(=O)[C@H](C)N)C(=O)N[C@@H](Cc1ccccc1)C(=O)N[C@@H](Cc1ccccc1)C(=O)N[C@@H](Cc1ccccc1)C(=O)N[C@@H](Cc1ccccc1)C(=O)N[C@@H](Cc1ccccc1)C(=O)N[C@@H](CCC(=O)O)C(=O)N[C@H](C(=O)N[C@@H](CCCCN)C(=O)O)[C@@H](C)O (H-ALFFFFFETK-OH; N-terminus and C-terminus assumed)	216 nM
CSCC[C@H](NC(=O)[C@H](C)N)C(=O)N[C@H](C(=O)N[C@H](C(=O)N[C@@H](CO)C(=O)N[C@@H](CO)C(=O)N[C@@H](CO)C(=O)N[C@@H](CCC(N)=O)C(=O)N[C@@H](CCCCN)C(=O)N[C@@H](CC(N)=O)C(=O)O)[C@@H](C)O)[C@@H](C)O (H-AMTTSSSQKN-OH; N-terminus and C-terminus assumed)	2340 nM
CC[C@H](C)[C@H](N)C(=O)N[C@H](C(=O)N[C@H](C(=O)N[C@H](C(=O)N[C@@H](CCCCN)C(=O)N[C@@H](C)C(=O)N[C@H](C(=O)N[C@@H](CCC(=O)O)C(=O)N[C@H](C(=O)N[C@@H](CCCCN)C(=O)O)[C@@H](C)O)[C@@H](C)O)C(C)C)[C@@H](C)O)[C@@H](C)O (H-ITTVKATETK-OH; N-terminus and C-terminus assumed)	1250 nM
CC[C@H](C)[C@H](NC(=O)[C@H](C)NC(=O)[C@H](CS)NC(=O)[C@@H](NC(=O)[C@H](Cc1ccc(O)cc1)NC(=O)[C@@H](N)[C@@H](C)O)[C@@H](C)O)C(=O)N[C@H](C(=O)N[C@H](C(=O)N[C@H](C(=O)N[C@@H](CCCCN)C(=O)O)C(C)C)[C@@H](C)O)[C@@H](C)O (H-TYTCAITTVK-OH; N-terminus and C-terminus assumed)	2360 nM
CC(C)C[C@H](NC(=O)[C@@H](NC(=O)[C@@H](NC(=O)[C@@H](N)CS)[C@@H](C)O)[C@@H](C)O)C(=O)N[C@@H](CC(N)=O)C(=O)N[C@@H](CO)C(=O)N1CCC[C@H]1C(=O)N1CCC[C@H]1C(=O)N[C@@H](CC(C)C)C(=O)N[C@@H](CCCCN)C(=O)O (H-CTTLNSPPLK-OH; N-terminus and C-terminus assumed)	63.6 nM
CC(C)[C@H](NC(=O)[C@@H](N)CCCNC(=N)N)C(=O)N[C@@H](CC(N)=O)C(=O)N[C@H](C(=O)N[C@@H](C)C(=O)N[C@@H](Cc1c[nH]c2ccccc12)C(=O)N[C@@H](CCCCN)C(=O)N[C@H](C(=O)N[C@@H](CCCCN)C(=O)O)[C@@H](C)O)[C@@H](C)O (H-RVNTAWKTK-OH; N-terminus and C-terminus assumed)	8.6 nM
